Test results: patent US7915276B2, “Berberrubine derivatives having antifungal activities” (priority 2006, dated 2011)

Tests used:
[1] = biological target: T1, chitin synthase 1 of Candida albicans chs2 Δ chs 3 Δ (Candida albicans, UniProt P23316); assay: In vitro enzyme assay for chitin synthase 1 of Candida albicans (enzyme 1); format: biochemical; details: relative to polyoxin D (50% inhibitory activity = value 5)
T1 construct: Crude enzyme was prepared using the Candida albicans chs2 Δ chs 3 Δ mutant; endogenous in cells; host or cells: Candida albicans chs2Δ/chs2Δ chs3Δ/chs3Δ mutant; 130,000 x g membrane pellet
Method in brief: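 Crude membrane enzyme from the C. albicans chs2Δ chs3Δ strain was trypsin-activated for 15 min at 30 °C. Reaction: 32 mM Tris-HCl pH 7.5, 2 mM cobalt acetate, 1.1 mM UDP-[14C]GlcNAc, 90 min at 30 °C; TCA-insoluble radioactivity counted. Scored 1–8 by relative polyoxin D concentration (5 = equal).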

[2] = biological target: T2, chitin synthase 2 of Saccharomyces cerevisiae ECY38-38A(pAS6) (Saccharomyces cerevisiae, UniProt P14180); assay: In vitro enzyme assay for chitin synthase 2 of Saccharomyces cerevisiae (enzyme 2); format: biochemical; details: relative to polyoxin D (50% inhibitory activity = value 5)
T2 construct: made in house; host or cells: Saccharomyces cerevisiae ECY38-38A (chs1-23 chs2::LEU2 cal1/csd2) carrying plasmid pAS6, grown in galactose medium; 130,000 x g membrane pellet
Method in brief: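 Crude membrane chitin synthase 2 came from S. cerevisiae ECY38-38A(pAS6), expressing only CHS2, and was trypsin-activated (15 min, 30 °C) then trypsin-inhibited. The reaction ran in 32 mM Tris-HCl pH 7.5, 2 mM cobalt acetate, 1.1 mM UDP-[14C]-GlcNAc, 90 min at 30 °C. TCA-precipitated product was counted by scintillation; scores 1–8 reflect concentration relative to polyoxin D's 50% inhibition (score 5).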

[3] = test system: Aspergillus flavus ATCC 64025; assay: In vitro antifungal activity (MIC), NCCLS method; format: cell-based; details: 48 hours
Method in brief: (§1)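 Broth microdilution per NCCLS: two-fold serial dilutions of test compound inoculated with fungal suspension at a final 5×10^2 to 2.5×10^3 cell/mL. Strains other than Cryptococcus neoformans were incubated 48 hours before MIC reading.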

[4] = test system: Aspergillus fumigatus ATCC 16424; assay: In vitro antifungal activity (MIC), NCCLS method; format: cell-based; details: 48 hours
Method in brief: as §1

[5] = test system: Aspergillus terreus ATCC 46941; assay: In vitro antifungal activity (MIC), NCCLS method; format: cell-based; details: 48 hours
Method in brief: as §1

[6] = test system: Candida albicans A207 (clinical isolate); assay: In vitro antifungal activity (MIC), NCCLS method; format: cell-based; details: 48 hours
Method in brief: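 Broth MIC by NCCLS two-fold dilution, final inoculum 5×10^2 to 2.5×10^3 cell/mL. Candida and Mucor strains incubated 48 hours.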

[7] = test system: Candida albicans ATCC 10231; assay: In vitro antifungal activity (MIC), NCCLS method; format: cell-based; details: 48 hours
Method in brief: (§2)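 According to NCCLS guidance, each compound is diluted two-fold and challenged with a fungal inoculum of 5×10^2 to 2.5×10^3 cell/mL (final). Incubation lasts 48 hours.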

[8] = test system: Candida glabrata ATCC 48435; assay: In vitro antifungal activity (MIC), NCCLS method; format: cell-based; details: Candida glabrata ATCC 48435; 48 hours
Method in brief: as §2

Candida krusei ATCC 6258 = assay: In vitro antifungal activity (MIC), NCCLS method; format: cell-based; details: 48 hours
Method in brief: as §2

[9] = test system: Candida lusitaniae ATCC 42720; assay: In vitro antifungal activity (MIC), NCCLS method; format: cell-based; details: 48 hours
Method in brief: as §2

[10] = test system: Candida parapsilosis ATCC 34136; assay: In vitro antifungal activity (MIC), NCCLS method; format: cell-based; details: Candida parapsilosis ATCC 34136; 48 hours
Method in brief: as §2

[11] = test system: Candida tropicalis ATCC 13803; assay: In vitro antifungal activity (MIC), NCCLS method; format: cell-based; details: 48 hours
Method in brief: as §2

[12] = test system: Cryptococcus neoformans ATCC 36556; assay: In vitro antifungal activity (MIC), NCCLS method; format: cell-based; details: RPMI 1640 medium, 72 hours
Method in brief: as §1

[13] = test system: Mucor ramosissimus ATCC 90286; assay: In vitro antifungal activity (MIC), NCCLS method; format: cell-based; details: 48 hours
Method in brief: as §2

human pathogenic fungi = assay: Antifungal activity against human pathogenic fungi (summary statements); format: cell-based
Excerpt: Candida albicans ATCC 10231, Candida lusitaniae ATCC 42720, Candida krusei ATCC 6258, Candida tropicalis ATCC 13803, Candida glabrata ATCC 48435, Candida parapsilosis ATCC 34136, Cryptococcus neoformans ATCC 36556, Aspergillus fumigatus ATCC 16424, Aspergillus flavus ATCC 64025, Aspergillus terreus ATCC 46941 and Mucor ramosissimus ATCC 90286 strains for the MIC (minimum inhibitory concentration) measurement were obtained from ATCC (American Type Culture Collection) in the U.S. The Candida albicans A207(clinical isolate) strain was used by isolating it from the patients.
The determination of MIC was performed according to the NCCLS (National Committee for Clinical Laboratory Standard) method. Each test sample solution was diluted two-fold and inoculated with a fungal suspension to reach a final inoculum size of 5×10^2 to 2.5×10^3 cell/mL. The Cryptococcus neoformans strain was cultured in the RPMI 1640 medium for 72 hours. Other strains were cultured for 48 hours.

chitin synthases = assay: Inhibitory activity against the chitin synthases (summary statements); format: biochemical
Excerpt: The inhibitory activities against the chitin synthase 1 of Candida albicans chs2 Δ chs 3 Δ (abbreviated as ‘enzyme 1’) and the chitin synthase 2 of Saccharomyces cerevisiae ECY38-38A(pAS6)(abbreviated as ‘enzyme 2’) was examined for compound Nos. 1 to 70 compound and polyoxin D, a positive control compound.
The inhibitory activity against the chitin synthase 1 prepared from Candida albicans and the chitin synthase 2 prepared from Saccharomyces cerevisiae were examined as follows. A reaction mixture containing 32 mM Tris-HCl (pH 7.5), 2 mM cobalt acetate, 1.1 mM UDP-[U-^14C]-N-acetyl-d-glucosamine (GlcNAc) (400,000 cpm/μmol), 2 μL of trypsin (0.75 mg/mL), 20 μL of each crude enzyme and 14 μL of each test sample was kept at 30° C. for 15 minutes to activate the enzyme. Then, 2 μL of trypsin inhibitor (1.5 mg/mL) was added and the mixture was kept in an ice bath for 10 minutes to deactivate trypsin. 2 μL of 0.8 M N-acetyl-d-glucosamine was added to a total volume of 50 μL and reaction was performed at 30° C. for 90 minutes. The reaction was stopped using 1 mL of 10% TCA solution and the reaction solution was filtered with a GF/C filter and dried at room temperature. After adding 3 mL of a scintillation cocktail solution, the amount of isotopes was measured using a liquid scintillation counter. Percentage inhibition against each enzyme was calculated by the following Equation 1.

T2 sequence (P14180 whole entry): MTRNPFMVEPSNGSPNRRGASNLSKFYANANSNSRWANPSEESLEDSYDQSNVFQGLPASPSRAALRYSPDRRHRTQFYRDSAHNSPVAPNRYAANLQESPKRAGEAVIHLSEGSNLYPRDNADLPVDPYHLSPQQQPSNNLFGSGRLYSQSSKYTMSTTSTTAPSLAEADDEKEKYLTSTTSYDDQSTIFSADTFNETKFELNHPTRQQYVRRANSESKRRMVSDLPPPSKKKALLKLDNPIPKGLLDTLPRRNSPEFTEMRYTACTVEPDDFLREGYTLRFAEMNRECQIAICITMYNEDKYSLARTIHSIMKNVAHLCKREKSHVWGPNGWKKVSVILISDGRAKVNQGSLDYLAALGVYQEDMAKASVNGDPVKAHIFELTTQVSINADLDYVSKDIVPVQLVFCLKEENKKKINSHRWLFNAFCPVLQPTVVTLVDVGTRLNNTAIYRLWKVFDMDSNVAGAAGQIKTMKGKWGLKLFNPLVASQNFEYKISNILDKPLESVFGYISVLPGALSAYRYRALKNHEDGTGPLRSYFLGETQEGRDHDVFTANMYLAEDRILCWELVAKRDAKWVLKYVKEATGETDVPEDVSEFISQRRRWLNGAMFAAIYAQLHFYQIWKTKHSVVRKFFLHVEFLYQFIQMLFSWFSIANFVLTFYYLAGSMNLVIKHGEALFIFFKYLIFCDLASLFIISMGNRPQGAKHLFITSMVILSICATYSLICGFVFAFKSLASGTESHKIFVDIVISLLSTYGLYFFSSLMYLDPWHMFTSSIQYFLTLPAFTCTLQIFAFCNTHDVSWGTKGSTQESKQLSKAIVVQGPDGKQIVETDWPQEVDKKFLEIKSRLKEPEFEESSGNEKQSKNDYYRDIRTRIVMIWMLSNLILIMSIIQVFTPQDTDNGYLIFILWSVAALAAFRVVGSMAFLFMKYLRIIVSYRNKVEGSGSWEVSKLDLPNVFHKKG
T1 sequence (P23316 whole entry, stated change not applied): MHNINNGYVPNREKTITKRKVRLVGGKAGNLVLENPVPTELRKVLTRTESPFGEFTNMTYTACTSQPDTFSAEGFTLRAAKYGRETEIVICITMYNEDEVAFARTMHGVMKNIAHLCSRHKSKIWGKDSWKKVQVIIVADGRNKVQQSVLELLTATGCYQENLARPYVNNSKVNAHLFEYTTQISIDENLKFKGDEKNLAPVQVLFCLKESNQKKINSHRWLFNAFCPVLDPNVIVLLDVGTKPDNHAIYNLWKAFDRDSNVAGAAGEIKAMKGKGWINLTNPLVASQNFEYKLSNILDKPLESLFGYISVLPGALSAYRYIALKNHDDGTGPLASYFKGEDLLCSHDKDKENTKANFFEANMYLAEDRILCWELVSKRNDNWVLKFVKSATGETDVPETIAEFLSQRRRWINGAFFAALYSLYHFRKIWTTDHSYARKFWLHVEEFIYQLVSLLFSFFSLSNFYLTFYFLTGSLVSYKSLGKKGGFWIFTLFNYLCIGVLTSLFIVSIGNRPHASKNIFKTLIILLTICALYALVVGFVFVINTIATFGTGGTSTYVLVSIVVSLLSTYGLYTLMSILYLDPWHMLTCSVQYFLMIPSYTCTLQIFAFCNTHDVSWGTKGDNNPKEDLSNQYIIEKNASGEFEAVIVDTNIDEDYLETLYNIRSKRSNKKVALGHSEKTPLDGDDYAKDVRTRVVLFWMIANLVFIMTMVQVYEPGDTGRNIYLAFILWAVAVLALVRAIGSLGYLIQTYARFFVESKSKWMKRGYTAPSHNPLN

Compound	Relative activity Enzyme 1 [1]	Relative activity Enzyme 2 [2]	MIC (minimum inhibitory concentration) [3] [µg/mL]	MIC (minimum inhibitory concentration) [4] [µg/mL]	MIC (minimum inhibitory concentration) [5] [µg/mL]	MIC (minimum inhibitory concentration) [6] [µg/mL]	MIC (minimum inhibitory concentration) [7] [µg/mL]	MIC (minimum inhibitory concentration) [8] [µg/mL]	MIC (minimum inhibitory concentration) (Candida krusei ATCC 6258) [µg/mL]	MIC (minimum inhibitory concentration) [9] [µg/mL]	MIC (minimum inhibitory concentration) [10] [µg/mL]	MIC (minimum inhibitory concentration) [11] [µg/mL]	MIC (minimum inhibitory concentration) [12] [µg/mL]	MIC (minimum inhibitory concentration) [13] [µg/mL]	antifungal activities compared with amphotericin B (in words) (human pathogenic fungi)	inhibitory activities against the chitin synthases (in words) (chitin synthases)	MIC (human pathogenic fungi; berberrubine, the starting material, strains not specified) [µg/mL]
13-(4-Isopropylbenzyl)-9-O-propylberberrubine chloride [Compound No. 49]	4 (Compounds having the inhibitory activity at 2-fold, 4-fold, 8-fold and 16-fold higher concentrations than that of polyoxin D were given the values of 4, 3, 2 and 1, respectively)	7 (compounds having the inhibitory activity at ½, ¼ and ⅛ lower concentrations than that of polyoxin D were given the values of 6, 7 and 8, respectively)	8	4	8	1	1	4	2	1	4	0.5	2	4	comparable to that of amphotericin B	exceptionally superior inhibitory activities	–
13-(4-Isopropylbenzyl)-9-O-propylberberrubine iodide [Compound No. 17]	4 (Compounds having the inhibitory activity at 2-fold, 4-fold, 8-fold and 16-fold higher concentrations than that of polyoxin D were given the values of 4, 3, 2 and 1, respectively)	7 (compounds having the inhibitory activity at ½, ¼ and ⅛ lower concentrations than that of polyoxin D were given the values of 6, 7 and 8, respectively)	8	4	8	1	1	4	2	2	4	0.5	2	4	comparable to that of amphotericin B	exceptionally superior inhibitory activities	–
COc1ccc2cc3[n+](cc2c1O)CCc1cc2c(cc1-3)OCO2 [berberrubine]	–	–	–	–	–	–	–	–	–	–	–	–	–	–	–	–	256 to 512
13-(4-tert-Butylbenzyl)-9-O-butylberberrubine chloride [Compound No. 40]	4 (Compounds having the inhibitory activity at 2-fold, 4-fold, 8-fold and 16-fold higher concentrations than that of polyoxin D were given the values of 4, 3, 2 and 1, respectively)	7 (compounds having the inhibitory activity at ½, ¼ and ⅛ lower concentrations than that of polyoxin D were given the values of 6, 7 and 8, respectively)	8	2	8	0.5	0.5	4	1	0.5	4	0.25	1	4	comparable to that of amphotericin B	exceptionally superior inhibitory activities	–
13-(4-tert-Butylbenzyl)-9-O-propylberberrubine chloride [Compound No. 39]	4 (Compounds having the inhibitory activity at 2-fold, 4-fold, 8-fold and 16-fold higher concentrations than that of polyoxin D were given the values of 4, 3, 2 and 1, respectively)	7 (compounds having the inhibitory activity at ½, ¼ and ⅛ lower concentrations than that of polyoxin D were given the values of 6, 7 and 8, respectively)	8	4	8	1	1	4	2	1	4	0.5	2	4	comparable to that of amphotericin B	exceptionally superior inhibitory activities	–
13-(4-tert-Butylbenzyl)-9-O-(6-chlorohexyl)berberrubine iodide [Compound No. 12]	2 (Compounds having the inhibitory activity at 2-fold, 4-fold, 8-fold and 16-fold higher concentrations than that of polyoxin D were given the values of 4, 3, 2 and 1, respectively)	5 (A compound having the same inhibitory activity as that of polyoxin D at the same concentration was given the value 5)	8	2	8	0.5	0.5	2	1	2	2	0.5	1	4	–	–	–
